Results published in ChEMBL document CHEMBL5346977, “Discovery of Novel d-(+)-Biotin-Conjugated Resorcinol Dibenzyl Ether-Based PD-L1 Inhibitors for Targeted Cancer Immunotherapy” (J Med Chem, 2023).

Assays:
[1] = Drug concentration in lung of C57BL/6 mouse implanted with mouse B16-F10 cells at 50 mg/kg, ip measured after 4 hrs by UPLC-MS/MS analysis; type: ADME, organism-based; settings: read-out: Ct
[2] = biological target: Programmed cell death protein 1/Programmed cell death 1 ligand 1 (Homo sapiens, UniProt Q9NZQ7); assay: Inhibition of interaction of PD-1 (unknown origin) expressed in Jurkat T cells carrying luciferase reporter under the control of NFAT promoter/PD-L1 (unknown origin) expressed in CHO cells co-expressing TCR ligand and T-cell surrogate pretreated with CHO cells for 0.5 hrs followed by Jurkat T cell addition and measured after 5 hrs by luminescence based analysis
[3] = test system: HepG2; assay: Antitumor immunity activity against human HepG2 cells expressing human PD-L1 co-cultured with human Jurkat T cells expressing human PD-1 assessed as reduction in cell viability incubated for 48 hrs by CCK8 assay; type: functional, cell-based; settings: dose 1.1-10 µM
[4] = Drug concentration in liver of C57BL/6 mouse implanted with mouse B16-F10 cells at 50 mg/kg, ip measured after 0.5 hrs by UPLC-MS/MS analysis; type: ADME, organism-based; settings: read-out: Ct
[5] = AUC (0 to t) in Sprague-Dawley rat at 1 mg/kg, iv administered as single dose and measured after 48 hrs by HPLC-MS/MS analysis; type: ADME, organism-based; parameters: dose 1 mg/kg, time 48 hrs, route iv; settings: in vivo
[6] = Drug concentration in lung of C57BL/6 mouse implanted with mouse B16-F10 cells at 50 mg/kg, ip measured after 2 hrs by UPLC-MS/MS analysis; type: ADME, organism-based; settings: read-out: Ct
[7] = AUC (0 to infinity) in Sprague-Dawley rat at 20 mg/kg, po measured after 48 hrs by HPLC-MS/MS analysis; type: ADME, organism-based; parameters: dose 20 mg/kg, time 48 hrs, route po; settings: in vivo
[8] = MRT (0 to t) in Sprague-Dawley rat at 1 mg/kg, iv administered as single dose and measured after 48 hrs by HPLC-MS/MS analysis; type: ADME, organism-based; settings: in vivo
[9] = Tmax in Sprague-Dawley rat at 1 mg/kg, iv administered as single dose and measured after 48 hrs by HPLC-MS/MS analysis; type: ADME, organism-based; settings: in vivo
[10] = biological target: T1, Programmed cell death 1 ligand 1 (Mus musculus, UniProt Q9EP73); assay: Binding affinity to mouse PD-L1 assessed as dissociation constant by SPR analysis
[11] = Drug concentration in lung of C57BL/6 mouse implanted with mouse B16-F10 cells at 50 mg/kg, ip measured after 1 hrs by UPLC-MS/MS analysis; type: ADME, organism-based; settings: read-out: Ct
[12] = MRT (0 to infinity) in Sprague-Dawley rat at 1 mg/kg, iv administered as single dose and measured after 48 hrs by HPLC-MS/MS analysis; type: ADME, organism-based; settings: in vivo
[13] = biological target: T1, Programmed cell death 1 ligand 1; assay: Binding affinity to mouse PD-L1 assessed as dissociation constant by MST analysis

T1 sequence (Q9EP73 whole entry): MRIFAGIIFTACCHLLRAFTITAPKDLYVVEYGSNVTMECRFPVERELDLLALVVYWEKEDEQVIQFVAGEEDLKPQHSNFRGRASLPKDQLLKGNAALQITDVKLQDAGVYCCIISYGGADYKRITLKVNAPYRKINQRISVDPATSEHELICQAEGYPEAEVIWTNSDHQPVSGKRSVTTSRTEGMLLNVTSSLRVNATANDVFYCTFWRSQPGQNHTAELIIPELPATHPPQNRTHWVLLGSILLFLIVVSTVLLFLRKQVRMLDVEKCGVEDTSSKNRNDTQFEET
Chain of Programmed cell death protein 1/Programmed cell death 1 ligand 1 (Q15116 whole entry): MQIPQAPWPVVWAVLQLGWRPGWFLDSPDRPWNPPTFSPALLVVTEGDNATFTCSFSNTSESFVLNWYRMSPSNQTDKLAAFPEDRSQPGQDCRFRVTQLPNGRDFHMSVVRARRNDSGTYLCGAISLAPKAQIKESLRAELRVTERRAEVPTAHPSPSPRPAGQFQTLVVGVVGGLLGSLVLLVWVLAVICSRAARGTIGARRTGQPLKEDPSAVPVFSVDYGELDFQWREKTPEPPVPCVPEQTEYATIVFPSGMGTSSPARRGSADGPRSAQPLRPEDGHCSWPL
Chain of Programmed cell death protein 1/Programmed cell death 1 ligand 1 (Q9NZQ7 whole entry): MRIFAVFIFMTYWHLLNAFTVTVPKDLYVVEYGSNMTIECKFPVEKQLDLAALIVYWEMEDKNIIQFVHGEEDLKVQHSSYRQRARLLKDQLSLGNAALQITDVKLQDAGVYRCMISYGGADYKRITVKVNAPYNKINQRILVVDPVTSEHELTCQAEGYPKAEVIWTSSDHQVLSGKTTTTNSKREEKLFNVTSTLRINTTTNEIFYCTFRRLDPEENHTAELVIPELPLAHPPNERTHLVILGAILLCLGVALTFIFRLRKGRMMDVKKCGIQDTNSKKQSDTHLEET

## Cc1c(COc2cc(OCc3cccc(C#N)c3)c(CN3CCCCC3C(=O)NCCNC(=O)CCCC[C@@H]3SC[C@@H]4NC(=O)N[C@@H]43)cc2Cl)cccc1-c1ccccc1 (stereo partly drawn)
[1]
  concentration at 4 h: 143 ng/mL
[2]
  EC50: 920 nM
[3]
  Activity: Dose-Dependent Effect
[4]
  concentration at 0.5 h: 1970 ng/mL
[5]
  AUCt: 719 ng·h/mL
[6]
  concentration at 2 h: 94.9 ng/mL
[7]
  AUC: 1170 ng·h/mL
[8]
  MRT last at 48 h: 11.6 h
[9]
  Tmax: 4.98 min
[10]
  Kd: 218 nM
[11]
  concentration at 1 h: 193 ng/mL
[12]
  MRT inf: 19.9 h
[13]
  Kd: 438 nM
